Measured values reported in patent US20260092179A1, “GENETICALLY MODIFIED HOST CELLS PRODUCING VIOLACEIN, ANALOGUES, AND DERIVATIVES THEREOF” (OCTARINE BIO APS, priority 2022, published 2026).
Blank lines part the entries; values can stand above or below the compound they belong to.

Tests used:
[1] = UV stability of dyed fabrics (colour fastness, ΔE); format: physicochemical; conditions: for ΔE: before vs after UV lamp, room temperature, 1 h
Procedure: (§1) In order to assess the stability and colour fastness of violacein and violacein derivatives dyed onto fabrics, dyed fabrics were subjected to a number of conditions. Fabrics were dyed according to Example 18 and colour coordinates and colour change before and after exposure to a given condition were determined as described in Example 18. To measure temperature stability, fabrics were incubated in an oven set to 80° c. for 4 h. To measure stability under acid and alkaline conditions, fabrics were fully submerged in water solutions set to pH 8 with NaOH and pH 5 with HCl and incubated at room temperature for 30 minutes. Fabrics were then incubated at 37° c. for 4 h. To measure stability during laundering, fabrics were washed at 30° c. under the “mix” setting of a Siemens IQ300 washing machine, then dried in a Siemens IQ300 dryer until dry. To measure artificial light stability, fabrics were placed under an LED lamp at room temperature for 16 h. To measure UV light stability, fabrics were placed under a UV lamp at room temperature for 1 h.

[2] = Acidic pH stability of dyed fabrics (colour fastness, ΔE); format: physicochemical; conditions: pH 5 with HCl
Procedure: as §1

[3] = UV absorption capability (absorbance maxima, UV-A, UV-B, UV-C absorption) by HPLC; format: physicochemical; conditions: for UV absorption capability in the UV-C region: 245 nm; for Total UV absorption UV C (245 nm): AUC of HPLC peak at 245 nm per mM; for Total UV absorption UV B (305 nm): AUC of HPLC peak at 305 nm per mM; for Total UV absorption UV A (360 nm): AUC of HPLC peak at 360 nm per mM
Procedure: The software Agilent Openlab CDS Chemstation Rev.
Violacein is reported as being a potent UV absorbent able to effectively absorb UV radiation, however, much less is known about the other violacein derivatives. To investigate the potential of using violacein and violacein derivatives as UV inhibitors and to potentially impart UV protection to fabrics, the UV absorption spectra of each compound was analyzed by HPLC and the total absorption capability at each of the most relevant UV wavelengths quantified.
For the quantification of UV absorption capacity of the compound of interest, a chromatographic separation on the F5 column and a gradient of water/acetonitrile containing 0.05% formic acid was run according to Example 5). […] The compounds were quantified based on the signal at 230 nm, using calibration curves of authentic analytical standards.
The UV absorption capacity is represented in mAU.min/mM. UV-A, UV-B and UV-C represent the most relevant regions where UV protection is required. UV-C is the most harmful type of UV radiation and can be generated by inorganic sources. UV-B radiation predominantly comes from the suns rays and is responsible for sun burn. UV-A radiation is also derived predominantly from the suns rays, and while UV-A radiation is less harmful than UV-B or UV-C but is much more prevalent.

E. coli DH5a = assay: Antimicrobial activity of dyed Nylon 6,6 fabric: final OD600 and % inhibition; format: cell-based; conditions: for Final OD600: E. coli cultured overnight at 30° c. with dyed Nylon 6,6 fabric strip, starting OD600 0.1; for % Inhibition: E. coli, dyed Nylon 6,6 fabric vs undyed fabric control
Procedure: (§2) Violacein is reported as being a potent antibiotic, capable of inhibiting the growth of a wide range of microbial kingdoms including bacteria, yeast, fungi, viruses, protozoa and nematode. […] To test this, overnight cultures of wild-type E. coli DH5a and S. cerevisiae S228c strains were diluted in 5 mL of cultivation media (LB for E. coli, minimal media for S. cerevisiae) to a starting OD600 of 0.1. 1.5×1.5 cm dyed Nylon 6,6 fabric strips were sterilized by submerging in 75% ethanol for 15 mins and air drying in a laminar air flow hood before adding to each culture (with undyed Nylon 6,6 fabric as a negative control). […] This experiment provides evidence that all violacein derivatives display antimicrobial properties.

S. cerevisiae S228c = assay: as above; format: cell-based; conditions: for Final OD600: S. cerevisiae cultured overnight at 30° c. with dyed Nylon 6,6 fabric strip, starting OD600 0.1; for % Inhibition: S. cerevisiae, dyed Nylon 6,6 fabric vs undyed fabric control
Procedure: as §2

[4] = Acrylic, after test (UV lamp, room temperature, 1 h)
[5] = Bleached cotton, after test (UV lamp, room temperature, 1 h)
[6] = Diacetate, after test (UV lamp, room temperature, 1 h)
[7] = Nylon 6,6, after test (UV lamp, room temperature, 1 h)
[8] = Polyester, after test (UV lamp, room temperature, 1 h)
[9] = Wool, after test (UV lamp, room temperature, 1 h)
[10] = Acrylic, before and after the stability test
[11] = Bleached cotton, before and after the stability test
[12] = Diacetate, before and after the stability test
[13] = Nylon 6,6, before and after the stability test
[14] = Polyester, before and after the stability test
[15] = Wool, before and after the stability test

L [1, 4]: 61.34
a [1, 4]: 2.05
b [1, 4]: −2.89
L ([1]; Acrylic, before test): 60.15
a ([1]; Acrylic, before test): 1.07
b ([1]; Acrylic, before test): −2.07
ΔE ([1]; Acrylic): 1.75
L [1, 5]: 62.17
a [1, 5]: 1.62
b [1, 5]: −6.68
L ([1]; Bleached cotton, before test): 61.4
a ([1]; Bleached cotton, before test): 1.8
b ([1]; Bleached cotton, before test): −7.92
ΔE ([1]; Bleached cotton): 1.47
L [1, 6]: 53.68
a [1, 6]: 8.75
b [1, 6]: −10.95
L ([1]; Diacetate, before test): 52.05
a ([1]; Diacetate, before test): 9.98
b ([1]; Diacetate, before test): −14.88
ΔE ([1]; Diacetate): 4.43
L [1, 7]: 46.19
a [1, 7]: 4.4
b [1, 7]: −19.75
L ([1]; Nylon 6,6, before test): 45.92
a ([1]; Nylon 6,6, before test): 4.94
b ([1]; Nylon 6,6, before test): −21.23
ΔE ([1]; Nylon 6,6): 1.60
L [1, 8]: 67.09
a [1, 8]: 1.19
b [1, 8]: −3.68
L ([1]; Polyester, before test): 66.55
a ([1]; Polyester, before test): 1.03
b ([1]; Polyester, before test): −2.87
ΔE ([1]; Polyester): 0.99
L [1, 9]: 67.65
a [1, 9]: 0.75
b [1, 9]: 1.17
L ([1]; Wool, before test): 65.56
a ([1]; Wool, before test): 0.65
b ([1]; Wool, before test): 0.31
ΔE ([1]; Wool): 2.26
L ([2]; Acrylic, After test): 59.8
a ([2]; Acrylic, After test): 2.01
b ([2]; Acrylic, After test): −3.77
L ([2]; Acrylic, Before test): 58.82
a ([2]; Acrylic, Before test): 2.34
b ([2]; Acrylic, Before test): −2.86
ΔE [2, 10]: 1.38
L ([2]; Bleached cotton, After test): 60.27
a ([2]; Bleached cotton, After test): 0.74
b ([2]; Bleached cotton, After test): −8.67
L ([2]; Bleached cotton, Before test): 58.08
a ([2]; Bleached cotton, Before test): 1.02
b ([2]; Bleached cotton, Before test): −7.23
ΔE [2, 11]: 2.64
L ([2]; Diacetate, After test): 46.41
a ([2]; Diacetate, After test): 12.25
b ([2]; Diacetate, After test): −16.83
L ([2]; Diacetate, Before test): 46.86
a ([2]; Diacetate, Before test): 12.01
b ([2]; Diacetate, Before test): −17.99
ΔE [2, 12]: 1.27
L ([2]; Nylon 6,6, After test): 44.46
a ([2]; Nylon 6,6, After test): 6.37
b ([2]; Nylon 6,6, After test): −22.27
L ([2]; Nylon 6,6, Before test): 43
a ([2]; Nylon 6,6, Before test): 5.21
b ([2]; Nylon 6,6, Before test): −20.47
ΔE [2, 13]: 2.59
L ([2]; Polyester, After test): 64.95
a ([2]; Polyester, After test): 2.03
b ([2]; Polyester, After test): −5.57
L ([2]; Polyester, Before test): 62.77
a ([2]; Polyester, Before test): 2
b ([2]; Polyester, Before test): −5.04
ΔE [2, 14]: 2.24
L ([2]; Wool, After test): 64.01
a ([2]; Wool, After test): 0.41
b ([2]; Wool, After test): −0.81
L ([2]; Wool, Before test): 63.73
a ([2]; Wool, Before test): 0.62
b ([2]; Wool, Before test): −0.94
ΔE [2, 15]: 0.37
UV absorption capability in the UV-C region [3]: particularly high
Total UV absorption UV C (245 nm) [3]: 9251.6 (mAU · min)/mM
Total UV absorption UV B (305 nm) [3]: 0 (mAU · min)/mM
Total UV absorption UV A (360 nm) [3]: 702.8 (mAU · min)/mM
Structure (SMILES): O=C1NC(c2c[nH]c3ccccc23)=C/C1=C1\C(=O)Nc2ccccc21 [deoxyviolacein]
Final OD600 (E. coli DH5a): 4.62
% Inhibition (E. coli DH5a): 11.45%
Final OD600 (S. cerevisiae S228c): 4.99
% Inhibition (S. cerevisiae S228c): 6.90%

L [1, 4]: 62.36
a [1, 4]: 1.52
b [1, 4]: 0.96
L ([1]; Acrylic, before test): 59.81
a ([1]; Acrylic, before test): 2.39
b ([1]; Acrylic, before test): 0.08
ΔE ([1]; Acrylic): 2.83
L [1, 5]: 58.38
a [1, 5]: 3.17
b [1, 5]: −5.79
L ([1]; Bleached cotton, before test): 58.11
a ([1]; Bleached cotton, before test): 3.63
b ([1]; Bleached cotton, before test): −8.4
ΔE ([1]; Bleached cotton): 2.66
L [1, 6]: 43.08
a [1, 6]: 10.1
b [1, 6]: −9.59
L ([1]; Diacetate, before test): 41.1
a ([1]; Diacetate, before test): 9.04
b ([1]; Diacetate, before test): −13.41
ΔE ([1]; Diacetate): 4.43
L [1, 7]: 35.29
a [1, 7]: 4.36
b [1, 7]: −18.03
L ([1]; Nylon 6,6, before test): 34.58
a ([1]; Nylon 6,6, before test): 4.58
b ([1]; Nylon 6,6, before test): −19.61
ΔE ([1]; Nylon 6,6): 1.75
L [1, 8]: 68.13
a [1, 8]: 1.99
b [1, 8]: −0.71
L ([1]; Polyester, before test): 67.13
a ([1]; Polyester, before test): 1.68
b ([1]; Polyester, before test): −1.12
ΔE ([1]; Polyester): 1.12
L [1, 9]: 68.91
a [1, 9]: 2.13
b [1, 9]: 1.49
L ([1]; Wool, before test): 68.14
a ([1]; Wool, before test): 0.77
b ([1]; Wool, before test): 1.77
ΔE ([1]; Wool): 1.59
L ([2]; Acrylic, After test): 66.03
a ([2]; Acrylic, After test): 2.78
b ([2]; Acrylic, After test): 0.02
L ([2]; Acrylic, Before test): 65.53
a ([2]; Acrylic, Before test): 2.41
b ([2]; Acrylic, Before test): 0.93
ΔE [2, 10]: 1.10
L ([2]; Bleached cotton, After test): 59.6
a ([2]; Bleached cotton, After test): 2.72
b ([2]; Bleached cotton, After test): −7.71
L ([2]; Bleached cotton, Before test): 59.65
a ([2]; Bleached cotton, Before test): 3.71
b ([2]; Bleached cotton, Before test): −6.68
ΔE [2, 11]: 1.43
L ([2]; Diacetate, After test): 45.59
a ([2]; Diacetate, After test): 9.13
b ([2]; Diacetate, After test): −11.74
L ([2]; Diacetate, Before test): 45.97
a ([2]; Diacetate, Before test): 8.41
b ([2]; Diacetate, Before test): −13
ΔE [2, 12]: 1.50
L ([2]; Nylon 6,6, After test): 34.94
a ([2]; Nylon 6,6, After test): 5.43
b ([2]; Nylon 6,6, After test): −20.31
L ([2]; Nylon 6,6, Before test): 34.82
a ([2]; Nylon 6,6, Before test): 5.47
b ([2]; Nylon 6,6, Before test): −20.22
ΔE [2, 13]: 0.16
L ([2]; Polyester, After test): 68.04
a ([2]; Polyester, After test): 1.96
b ([2]; Polyester, After test): −1.34
L ([2]; Polyester, Before test): 66.71
a ([2]; Polyester, Before test): 3.52
b ([2]; Polyester, Before test): −2.04
ΔE [2, 14]: 2.17
L ([2]; Wool, After test): 69.34
a ([2]; Wool, After test): 1.2
b ([2]; Wool, After test): 0.61
L ([2]; Wool, Before test): 69.04
a ([2]; Wool, Before test): 0.77
b ([2]; Wool, Before test): 1.2
ΔE [2, 15]: 0.79
UV absorption capability in the UV-C region [3]: particularly high
Total UV absorption UV C (245 nm) [3]: 8876.8 (mAU · min)/mM
Total UV absorption UV B (305 nm) [3]: 1011.6 (mAU · min)/mM
Total UV absorption UV A (360 nm) [3]: 411.4 (mAU · min)/mM
Structure (SMILES): O=C1NC(c2c[nH]c3ccc(O)cc23)=C/C1=C1\C(=O)Nc2ccccc21 [violacein]
Final OD600 (E. coli DH5a): 4.16
% Inhibition (E. coli DH5a): 20.24%
growth inhibition of E. coli (E. coli DH5a; dyed Nylon 6,6 fabric strip in culture, overnight 30° c., OD600 versus undyed fabric): most inhibited
Final OD600 (S. cerevisiae S228c): 4.64
% Inhibition (S. cerevisiae S228c): 13.43%
